Measured values: ChEMBL document CHEMBL1145601, “The design and synthesis of diaryl ether second generation HIV-1 non-nucleoside reverse transcriptase inhibitors (NNRTIs) with enhanced potency versus key clinical mutations” (Bioorg Med Chem Lett, 2008)

Legend:
[1] = test system: Human immunodeficiency virus 1; assay: Antiviral activity against HIV1 with RT K103N mutation in human MT4 cells in presence of 10% fetal bovine serum; assay type: functional; conditions: Human immunodeficiency virus 1, MT4; read-out: CIC95
[2] = target: Human immunodeficiency virus type 1 reverse transcriptase (Human immunodeficiency virus 1, UniProt Q72547, Y181C); assay: Inhibition of HIV1 reverse transcriptase Y181C mutant by SPA assay
[3] = test system: Human immunodeficiency virus 1; assay: Antiviral activity against HIV1 in human MT4 cells in RPMI1640 media containing fetal bovine serum; assay type: functional; conditions: Human immunodeficiency virus 1, MT4; read-out: CIC95
[4] = target: Human immunodeficiency virus type 1 reverse transcriptase (Human immunodeficiency virus 1, UniProt Q72547); assay: Inhibition of HIV1 reverse transcriptase by SPA assay
[5] = test system: Human immunodeficiency virus 1; assay: Antiviral activity against HIV1 with RT Y181C mutation in human MT4 cells in presence of 10% fetal bovine serum; assay type: functional; conditions: Human immunodeficiency virus 1, MT4; read-out: CIC95
[6] = test system: Human immunodeficiency virus 1; assay: Antiviral activity against HIV1 in human MT4 cells in presence of 50% normal human serum; assay type: functional; conditions: Human immunodeficiency virus 1, MT4; read-out: CIC95
[7] = target: Human immunodeficiency virus type 1 reverse transcriptase (Human immunodeficiency virus 1, UniProt Q72547, K103N); assay: Inhibition of HIV1 reverse transcriptase K103N mutant by SPA assay
[8] = test system: Human immunodeficiency virus 1; assay: Antiviral activity against HIV1 with RT K103N mutation in human MT4 cells in presence of 40% normal human serum; assay type: functional, organism-based; conditions: Human immunodeficiency virus 1, MT4
[9] = test system: Human immunodeficiency virus 1; assay: Antiviral activity against HIV1 with RT K101E/G190A mutation in human MT4 cells in presence of 40% normal human serum; assay type: functional, organism-based; conditions: Human immunodeficiency virus 1, MT4
[10] = Half life in rhesus monkey at 1 mg/kg, iv; assay type: ADME, organism-based, Macaca mulatta; set-up: dose 1 mg/kg, route intravenous; conditions: in vivo
[11] = Half life in Beagle dog at 0.25 mg/kg, iv; assay type: ADME, organism-based, Canis lupus familiaris; set-up: dose 0.25 mg/kg, route intravenous; conditions: in vivo
[12] = test system: Human immunodeficiency virus 1; assay: Antiviral activity against HIV1 in human MT4 cells in presence of 40% normal human serum; assay type: functional, organism-based; conditions: Human immunodeficiency virus 1, MT4
[13] = test system: Human immunodeficiency virus 1; assay: Antiviral activity against HIV1 with RT Y181C/G190A mutation in human MT4 cells in presence of 40% normal human serum; assay type: functional, organism-based; conditions: Human immunodeficiency virus 1, MT4
[14] = Oral bioavailability in Sprague-Dawley rat at 10 mg/kg, po and 2 mg/kg, iv; assay type: ADME, organism-based; conditions: in vivo
[15] = Half life in Sprague-Dawley rat at 2 mg/kg, iv; assay type: ADME, organism-based; set-up: dose 2 mg/kg, route intravenous; conditions: in vivo
[16] = AUC in Beagle dog at 0.25 mg/kg, iv; assay type: ADME, organism-based, Canis lupus familiaris; set-up: dose 0.25 mg/kg, route intravenous; conditions: plasma
[17] = test system: Human immunodeficiency virus 1; assay: Antiviral activity against HIV1 with RT Y188L mutation in human MT4 cells in presence of 40% normal human serum; assay type: functional, organism-based; conditions: Human immunodeficiency virus 1, MT4
[18] = test system: Human immunodeficiency virus 1; assay: Antiviral activity against HIV1 with RT K103N/P225H mutation in human MT4 cells in presence of 40% normal human serum; assay type: functional, organism-based; conditions: Human immunodeficiency virus 1, MT4
[19] = AUC in rhesus monkey at 1 mg/kg, iv; assay type: ADME, organism-based, Macaca mulatta; set-up: dose 1 mg/kg, route intravenous; conditions: plasma
[20] = test system: Human immunodeficiency virus 1; assay: Antiviral activity against HIV1 with RT K103N/G190A mutation in human MT4 cells in presence of 40% normal human serum; assay type: functional, organism-based; conditions: Human immunodeficiency virus 1, MT4
[21] = test system: Human immunodeficiency virus 1; assay: Antiviral activity against HIV1 with RT K103N/Y181C mutation in human MT4 cells in presence of 40% normal human serum; assay type: functional, organism-based; conditions: Human immunodeficiency virus 1, MT4
[22] = Clearance in rhesus monkey at 1 mg/kg, iv; assay type: ADME, organism-based, Macaca mulatta; set-up: dose 1 mg/kg, route intravenous; conditions: in vivo
[23] = test system: Human immunodeficiency virus 1; assay: Antiviral activity against HIV1 with RT L100I mutation in human MT4 cells in presence of 40% normal human serum; assay type: functional, organism-based; conditions: Human immunodeficiency virus 1, MT4
[24] = AUC in Sprague-Dawley rat at 10 mg/kg, po and 2 mg/kg, iv; assay type: ADME, organism-based; conditions: plasma
[25] = Clearance in Beagle dog at 0.25 mg/kg, iv; assay type: ADME, organism-based, Canis lupus familiaris; set-up: dose 0.25 mg/kg, route intravenous; conditions: in vivo
[26] = test system: Human immunodeficiency virus 1; assay: Antiviral activity against HIV1 with RT K103N/Y181C/G190A mutation in human MT4 cells in presence of 40% normal human serum; assay type: functional, organism-based; conditions: Human immunodeficiency virus 1, MT4
[27] = Volume of distribution in Sprague-Dawley rat at 10 mg/kg, po and 2 mg/kg, iv; assay type: ADME, organism-based; conditions: in vivo
[28] = Volume of distribution in Beagle dog at 0.25 mg/kg, iv; assay type: ADME, organism-based, Canis lupus familiaris; set-up: dose 0.25 mg/kg, route intravenous; conditions: in vivo
[29] = Volume of distribution in rhesus monkey at 1 mg/kg, iv; assay type: ADME, organism-based, Macaca mulatta; set-up: dose 1 mg/kg, route intravenous; conditions: in vivo
[30] = test system: Human immunodeficiency virus 1; assay: Antiviral activity against HIV1 with RT K103N/V179E mutation in human MT4 cells in presence of 40% normal human serum; assay type: functional, organism-based; conditions: Human immunodeficiency virus 1, MT4
[31] = test system: Human immunodeficiency virus 1; assay: Antiviral activity against HIV1 with RT Y181C mutation in human MT4 cells in presence of 40% normal human serum; assay type: functional, organism-based; conditions: Human immunodeficiency virus 1, MT4
[32] = test system: Human immunodeficiency virus 1; assay: Antiviral activity against HIV1 with RT G190A mutation in human MT4 cells in presence of 40% normal human serum; assay type: functional, organism-based; conditions: Human immunodeficiency virus 1, MT4
[33] = test system: Human immunodeficiency virus 1; assay: Antiviral activity against HIV1 with RT G190S mutation in human MT4 cells in presence of 40% normal human serum; assay type: functional, organism-based; conditions: Human immunodeficiency virus 1, MT4
[34] = Clearance in Sprague-Dawley rat at 2 mg/kg, iv; assay type: ADME, organism-based; set-up: dose 2 mg/kg, route intravenous; conditions: in vivo

Cc1cc(S(N)(=O)=O)ccc1NC(=O)COc1ccc(Cl)cc1C(=O)c1cc(Cl)cc(C#N)c1
IC95 [1]: 6.98 nM | IC50 [2]: 2.48 nM | IC95 [3]: 0.00265 µM | IC50 [4]: 2.16 nM | IC95 [5]: 0.00328 µM | IC95 [6]: 0.0305 µM | IC50 [7]: 3.16 nM

NS(=O)(=O)c1ccc(NC(=O)COc2cc(Cl)cc(Oc3ccccc3)c2)c(Cl)c1
IC50 [2]: 25 nM | IC50 [4]: 10.5 nM | IC50 [7]: 218 nM

N#Cc1cccc(Oc2cc(Cl)cc(OCC(=O)Nc3ccc(S(N)(=O)=O)cc3Cl)c2)c1
IC50 [2]: 1.2 nM | IC95 [3]: 0.008 µM | IC50 [4]: 0.96 nM | IC95 [6]: 0.16 µM | IC50 [7]: 14.4 nM

NS(=O)(=O)c1ccc(NC(=O)COc2cccc(Oc3ccccc3)c2)c(Cl)c1
IC50 [2]: 722 nM | IC50 [4]: 51.7 nM | IC50 [7]: 192 nM

N#Cc1cc(Cl)cc(Oc2cc(OCc3nc4cccc(Cl)c4[nH]3)ccc2Cl)c1
IC50 [2]: 50 nM | IC95 [3]: 0.103 µM | IC50 [4]: 3.2 nM | IC95 [6]: 2.78 µM | IC50 [7]: 7.3 nM

N#Cc1cc(Cl)cc(Oc2cc(Cl)cc(OCC(=O)Nc3ccc(S(N)(=O)=O)cc3Cl)c2)c1
IC50 [2]: 2.66 nM | IC95 [3]: 0.016 µM | IC95 [6]: 0.125 µM | IC50 [7]: 3.48 nM

N#Cc1cc(Cl)cc(Oc2cc(OCC(=O)Nc3ccc(S(N)(=O)=O)cc3Cl)ccc2Cl)c1
IC95 [1]: 9.52 nM | IC50 [2]: 0.28 nM | IC95 [3]: 0.00756 µM | IC50 [4]: 0.14 nM | IC95 [5]: 0.0149 µM | IC95 [6]: 0.0239 µM | IC50 [7]: 0.21 nM

N#Cc1cc(Cl)cc(Oc2cc(OCc3nc4ccccc4s3)ccc2Cl)c1
IC50 [2]: 54.9 nM | IC95 [3]: 0.312 µM | IC50 [4]: 19.3 nM | IC95 [6]: 1.25 µM | IC50 [7]: 79.2 nM

CS(=O)(=O)c1ccc(NC(=O)COc2ccc(Cl)c(Oc3cc(Cl)cc(C#N)c3)c2)c(Cl)c1
IC50 [2]: 0.91 nM | IC95 [3]: 0.031 µM | IC50 [4]: 0.99 nM | IC95 [6]: 0.078 µM | IC50 [7]: 1.33 nM

CS(=O)(=O)c1ccc2c(c1)CCN2C(=O)COc1ccc(Cl)c(Oc2cc(Cl)cc(C#N)c2)c1
IC95 [1]: 5.26 nM | IC50 [2]: 1.7 nM | IC95 [3]: 0.00368 µM | IC50 [4]: 0.86 nM | IC95 [5]: 0.0143 µM | IC95 [6]: 0.0297 µM | IC50 [7]: 0.33 nM

Cc1cc(C)c(-n2nnnc2SCC(=O)Nc2ccc(S(N)(=O)=O)cc2Cl)c(C)c1
IC50 [2]: 34.5 nM | IC95 [3]: 0.016 µM | IC50 [4]: 4.05 nM | IC95 [6]: 0.062 µM | IC50 [7]: 10.4 nM

N#Cc1cc(Cl)cc(Oc2cc(OCc3nc4cccc(Cl)c4s3)ccc2Cl)c1
IC50 [2]: 5.15 nM | IC95 [3]: 0.156 µM | IC50 [4]: 3.06 nM | IC95 [6]: 1.25 µM | IC50 [7]: 5.98 nM

N#Cc1cc(Cl)cc(Oc2cc(OCc3n[nH]c4ccccc34)ccc2Cl)c1
IC50 [8]: 7.9 nM | IC95 [1]: 33.4 nM | IC50 [9]: 21 nM | IC50 [2]: 2.62 nM | half-life [10]: 486 min | half-life [11]: 90 min | IC50 [12]: 4.7 nM | IC50 [13]: 35.8 nM | bioavailability [14]: 3.3% | half-life [15]: 282 min | AUC [16]: 0.4 µM·h | IC50 [17]: > 1000 nM | IC50 [18]: 29.3 nM | AUC [19]: 1.7 µM·h | IC50 [20]: 21.7 nM | IC50 [21]: 141 nM | clearance [22]: 24 mL/min/kg | IC50 [23]: 2.6 nM | IC95 [3]: 0.0226 µM | AUC [24]: 6.2 µM·h | clearance [25]: 28.9 mL/min/kg | IC50 [26]: 171 nM | Vd [27]: 2.9 L/kg | IC95 [5]: 0.102 µM | Vd [28]: 1.2 L/kg | Vd [29]: 7.1 L/kg | IC50 [30]: 20.3 nM | IC50 [31]: 13.8 nM | IC95 [6]: 0.114 µM | IC50 [7]: 1.12 nM | IC50 [32]: 9.4 nM | IC50 [33]: 23.4 nM | clearance [34]: 13.6 mL/min/kg

N#Cc1cc(Cl)cc(Oc2cc(OCc3nc4cccc(Cl)c4o3)ccc2Cl)c1
IC50 [2]: 6.38 nM | IC95 [3]: 0.078 µM | IC50 [4]: 0.59 nM | IC95 [6]: 0.312 µM | IC50 [7]: 1.41 nM
